Legend:
Assay in all cases: Test C preemergence
blackgrass = assay type: in vivo, Alopecurus myosuroides; conditions: for Blackgrass plant response rating: preemergence; for Plant response rating, Blackgrass: Preemergence, 31 g ai/ha, scale 0 to 100, 0 no effect, 100 complete control
Outline: (§1)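 Seeds are planted in blended loam soil and sand and treated preemergence, while seedlings in a peat moss/vermiculite medium receive postemergence sprays at 2 to 18 cm height. All plants stay in the greenhouse for 13 to 15 days before visual comparison with controls on a 0–100 scale.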

Italian ryegrass = assay type: in vivo, Lolium multiflorum; conditions: for Ryegrass, Italian plant response rating: preemergence; for Plant response rating, Ryegrass, Italian: Preemergence, 31 g ai/ha, scale 0 to 100, 0 no effect, 100 complete control
Outline: as §1

large (Lg) crabgrass = assay type: in vivo, Digitaria sanguinalis; conditions: for Crabgrass, Large plant response rating: preemergence; for Plant response rating, Crabgrass, Large: Preemergence, 31 g ai/ha, scale 0 to 100, 0 no effect, 100 complete control
Outline: as §1

giant foxtail = assay type: in vivo, Setaria faberii; conditions: for Foxtail, Giant plant response rating: preemergence; for Plant response rating, Foxtail, Giant: Preemergence, 31 g ai/ha, scale 0 to 100, 0 no effect, 100 complete control
Outline: as §1

johnsongrass = assay type: in vivo, Sorghum halepense; conditions: for Johnsongrass plant response rating: preemergence; for Plant response rating, Johnsongrass: Preemergence, 31 g ai/ha, scale 0 to 100, 0 no effect, 100 complete control
Outline: as §1

lambsquarters = assay type: in vivo, Chenopodium album; conditions: for Lambsquarters plant response rating: preemergence; for Plant response rating, Lambsquarters: Preemergence, 31 g ai/ha, scale 0 to 100, 0 no effect, 100 complete control
Outline: as §1

morningglory = assay type: in vivo, Ipomoea coccinea; conditions: for Morningglory plant response rating: preemergence; for Plant response rating, Morningglory: Preemergence, 31 g ai/ha, scale 0 to 100, 0 no effect, 100 complete control
Outline: as §1

yellow nutsedge = assay type: in vivo, Cyperus esculentus; conditions: for Nutsedge, Yellow plant response rating: preemergence; for Plant response rating, Nutsedge, Yellow: Preemergence, 31 g ai/ha, scale 0 to 100, 0 no effect, 100 complete control
Outline: as §1

pigweed = assay type: in vivo, Amaranthus retroflexus; conditions: for Pigweed plant response rating: preemergence; for Plant response rating, Pigweed: Preemergence, 31 g ai/ha, scale 0 to 100, 0 no effect, 100 complete control
Outline: as §1

soybean = assay type: in vivo, Glycine max; conditions: for Soybean plant response rating: preemergence; for Plant response rating, Soybean: Preemergence, 31 g ai/ha, scale 0 to 100, 0 no effect, 100 complete control
Outline: as §1

barnyardgrass = assay type: in vivo, Echinochloa crus-galli; conditions: for Barnyardgrass plant response rating: preemergence; for Plant response rating, Barnyardgrass: Preemergence, 31 g ai/ha, scale 0 to 100, 0 no effect, 100 complete control
Outline: as §1

oilseed rape = assay type: in vivo, Brassica napus; conditions: for Oilseed Rape plant response rating: preemergence; for Plant response rating, Oilseed Rape: Preemergence, 31 g ai/ha, scale 0 to 100, 0 no effect, 100 complete control
Outline: as §1

waterhemp = assay type: in vivo, Amaranthus rudis; conditions: for Waterhemp plant response rating: preemergence; for Plant response rating, Waterhemp: Preemergence, 31 g ai/ha, scale 0 to 100, 0 no effect, 100 complete control
Outline: as §1

velvetleaf = assay type: in vivo, Abutilon theophrasti; conditions: for Velvetleaf plant response rating: preemergence; for Plant response rating, Velvetleaf: Preemergence, 31 g ai/ha, scale 0 to 100, 0 no effect, 100 complete control
Outline: as §1

[1] = 16 g ai/ha, scale 0 to 100 (0 no effect, 100 complete control)
[2] = 62 g ai/ha, scale 0 (no effect) to 100 (complete control)
[3] = 125 g ai/ha, scale 0 (no effect) to 100 (complete control)

Fc1cnc(Oc2cccc(C(F)F)c2-n2cc(Cl)cn2)nc1 [Compound 94]
Blackgrass plant response rating (blackgrass; [1]): 5 | Blackgrass plant response rating (blackgrass; [2]): 90 | Blackgrass plant response rating (blackgrass; [3]): 90 | Plant response rating, Blackgrass (blackgrass): 20 | Ryegrass, Italian plant response rating (Italian ryegrass; [1]): 0 | Ryegrass, Italian plant response rating (Italian ryegrass; [2]): 10 | Ryegrass, Italian plant response rating (Italian ryegrass; [3]): 50 | Plant response rating, Ryegrass, Italian (Italian ryegrass): 0 | Crabgrass, Large plant response rating (large (Lg) crabgrass; [1]): 25 | Crabgrass, Large plant response rating (large (Lg) crabgrass; [2]): 100 | Crabgrass, Large plant response rating (large (Lg) crabgrass; [3]): 100 | Plant response rating, Crabgrass, Large (large (Lg) crabgrass): 98 | Foxtail, Giant plant response rating (giant foxtail; [1]): 5 | Foxtail, Giant plant response rating (giant foxtail; [2]): 100 | Foxtail, Giant plant response rating (giant foxtail; [3]): 100 | Plant response rating, Foxtail, Giant (giant foxtail): 65 | Johnsongrass plant response rating (johnsongrass; [1]): 0 | Johnsongrass plant response rating (johnsongrass; [2]): 35 | Johnsongrass plant response rating (johnsongrass; [3]): 70 | Plant response rating, Johnsongrass (johnsongrass): 25 | Lambsquarters plant response rating (lambsquarters; [1]): 40 | Lambsquarters plant response rating (lambsquarters; [2]): 100 | Lambsquarters plant response rating (lambsquarters; [3]): 100 | Plant response rating, Lambsquarters (lambsquarters): 85 | Morningglory plant response rating (morningglory; [1]): 0 | Morningglory plant response rating (morningglory; [2]): 40 | Morningglory plant response rating (morningglory; [3]): 90 | Plant response rating, Morningglory (morningglory): 30 | Nutsedge, Yellow plant response rating (yellow nutsedge; [1]): 0 | Nutsedge, Yellow plant response rating (yellow nutsedge; [2]): 55 | Nutsedge, Yellow plant response rating (yellow nutsedge; [3]): 65 | Plant response rating, Nutsedge, Yellow (yellow nutsedge): 0 | Pigweed plant response rating (pigweed; [1]): 90 | Pigweed plant response rating (pigweed; [2]): 100 | Pigweed plant response rating (pigweed; [3]): 100 | Plant response rating, Pigweed (pigweed): 100 | Soybean plant response rating (soybean; [1]): 35 | Soybean plant response rating (soybean; [2]): 85 | Soybean plant response rating (soybean; [3]): 95 | Plant response rating, Soybean (soybean): 50 | Barnyardgrass plant response rating (barnyardgrass; [1]): 5 | Barnyardgrass plant response rating (barnyardgrass; [2]): 85 | Barnyardgrass plant response rating (barnyardgrass; [3]): 100 | Plant response rating, Barnyardgrass (barnyardgrass): 10 | Oilseed Rape plant response rating (oilseed rape; [1]): 85 | Oilseed Rape plant response rating (oilseed rape; [2]): 98 | Oilseed Rape plant response rating (oilseed rape; [3]): 98 | Plant response rating, Oilseed Rape (oilseed rape): 98 | Waterhemp plant response rating (waterhemp; [1]): 80 | Waterhemp plant response rating (waterhemp; [2]): 100 | Waterhemp plant response rating (waterhemp; [3]): 100 | Plant response rating, Waterhemp (waterhemp): 100 | Velvetleaf plant response rating (velvetleaf; [1]): 40 | Velvetleaf plant response rating (velvetleaf; [2]): 100 | Velvetleaf plant response rating (velvetleaf; [3]): 100 | Plant response rating, Velvetleaf (velvetleaf): 100

N#Cc1cccc(Oc2ncc(Cl)cn2)c1-n1cc(OC(F)F)cn1 [Compound 97]
Blackgrass plant response rating (blackgrass; [1]): 0 | Blackgrass plant response rating (blackgrass; [2]): 90 | Blackgrass plant response rating (blackgrass; [3]): 90 | Plant response rating, Blackgrass (blackgrass): 70 | Ryegrass, Italian plant response rating (Italian ryegrass; [1]): 0 | Ryegrass, Italian plant response rating (Italian ryegrass; [2]): 85 | Ryegrass, Italian plant response rating (Italian ryegrass; [3]): 90 | Plant response rating, Ryegrass, Italian (Italian ryegrass): 60 | Crabgrass, Large plant response rating (large (Lg) crabgrass; [1]): 98 | Crabgrass, Large plant response rating (large (Lg) crabgrass; [2]): 100 | Crabgrass, Large plant response rating (large (Lg) crabgrass; [3]): 100 | Plant response rating, Crabgrass, Large (large (Lg) crabgrass): 100 | Foxtail, Giant plant response rating (giant foxtail; [1]): 60 | Foxtail, Giant plant response rating (giant foxtail; [2]): 100 | Foxtail, Giant plant response rating (giant foxtail; [3]): 100 | Plant response rating, Foxtail, Giant (giant foxtail): 100 | Johnsongrass plant response rating (johnsongrass; [1]): 10 | Johnsongrass plant response rating (johnsongrass; [2]): 90 | Johnsongrass plant response rating (johnsongrass; [3]): 90 | Plant response rating, Johnsongrass (johnsongrass): 40 | Lambsquarters plant response rating (lambsquarters; [1]): 95 | Lambsquarters plant response rating (lambsquarters; [2]): 100 | Lambsquarters plant response rating (lambsquarters; [3]): 98 | Plant response rating, Lambsquarters (lambsquarters): 98 | Morningglory plant response rating (morningglory; [1]): 40 | Morningglory plant response rating (morningglory; [2]): 100 | Morningglory plant response rating (morningglory; [3]): 100 | Plant response rating, Morningglory (morningglory): 98 | Nutsedge, Yellow plant response rating (yellow nutsedge; [1]): 10 | Nutsedge, Yellow plant response rating (yellow nutsedge; [2]): 60 | Nutsedge, Yellow plant response rating (yellow nutsedge; [3]): 90 | Plant response rating, Nutsedge, Yellow (yellow nutsedge): 20 | Pigweed plant response rating (pigweed; [1]): 100 | Pigweed plant response rating (pigweed; [2]): 100 | Pigweed plant response rating (pigweed; [3]): 100 | Plant response rating, Pigweed (pigweed): 100 | Soybean plant response rating (soybean; [1]): 50 | Soybean plant response rating (soybean; [2]): 95 | Soybean plant response rating (soybean; [3]): 98 | Plant response rating, Soybean (soybean): 90 | Barnyardgrass plant response rating (barnyardgrass; [1]): 35 | Barnyardgrass plant response rating (barnyardgrass; [2]): 100 | Barnyardgrass plant response rating (barnyardgrass; [3]): 100 | Plant response rating, Barnyardgrass (barnyardgrass): 95 | Oilseed Rape plant response rating (oilseed rape; [1]): 85 | Oilseed Rape plant response rating (oilseed rape; [2]): 98 | Oilseed Rape plant response rating (oilseed rape; [3]): 90 | Plant response rating, Oilseed Rape (oilseed rape): 85 | Waterhemp plant response rating (waterhemp; [1]): 100 | Waterhemp plant response rating (waterhemp; [2]): 100 | Waterhemp plant response rating (waterhemp; [3]): 100 | Plant response rating, Waterhemp (waterhemp): 100 | Velvetleaf plant response rating (velvetleaf; [1]): 40 | Velvetleaf plant response rating (velvetleaf; [2]): 100 | Velvetleaf plant response rating (velvetleaf; [3]): 100 | Plant response rating, Velvetleaf (velvetleaf): 95

Reference: US9695155B2, “Herbicidal substituted pyrimidinyloxy benzene compounds” (E. I. DU PONT DE NEMOURS AND COMPANY, priority 2013, dated 2017)
